Assay results from patent US4172891A, “Cephalosporins” (Takeda Chemical Industries, Inc., priority 1976, dated 1979).
Converted amounts (≈) assume the structure as drawn. Like-named read-outs stand apart in the source and are kept apart here.

Key:
K. pneumoniae GN 3835 = assay: Minimum Inhibitory Concentration, agar dilution, K. pneumoniae GN 3835; format: cell-based; settings: Klebsiella pneumoniae, GN3835; K. pneumoniae GN 3835; agar dilution; read-out: Minimum Inhibitory Concentration
Description: (§1) […]. | Minimum Inhibitory Concentrations (mcg/ml, agar dilution)

E. coli NIHJ = assay: Minimum Inhibitory Concentration, agar dilution, E. coli NIHJ; format: cell-based; settings: Escherichia coli; E. coli NIHJ; agar dilution; read-out: Minimum Inhibitory Concentration
Description: as §1

P. rettgeri 8(TNO 336) = assay: Minimum Inhibitory Concentration, agar dilution, P. rettgeri 8(TNO 336); format: cell-based, Proteus rettgeri; settings: Providencia rettgeri, P. rettgeri 8(TNO 336), read-out: Minimum Inhibitory Concentration
Description: as §1

Cit. freundii GN 1706 = assay: Minimum Inhibitory Concentration, agar dilution, Cit. freundii GN 1706; format: cell-based; settings: Citrobacter freundii, GN1706; Cit. freundii GN 1706; agar dilution; read-out: Minimum Inhibitory Concentration
Description: as §1

E. coli O-111 = assay: Minimum Inhibitory Concentration, agar dilution, E. coli O-111; format: cell-based; settings: Escherichia coli, O111; E. coli O-111; agar dilution; read-out: Minimum Inhibitory Concentration
Description: (§2) Following each example is a tabulation of the minimal inhibitory concentrations (MIC) of the present compound [I] obtained in accordance with the particular example against several representative gram-negative bacteria and the corresponding concentrations of cephaloridine [7-(2-thienylacetamido)-3-(1-pyridyl)methyl-3-cephem-4-carboxylic acid betaine] and cefazolin [sodium 7-(1H-tetrazol-1-yl)acetamido-3-(2-methyl-1,3,4-thiadiazol-5-yl)thiomethyl-3-cephem-4-carboxylate], both of which are typical cephalosporins commercially available and clinically accepted nowadays [The New England Journal of Medicine 294, 24 (1976) and Journal of Pharmaceutical Science 64, 1899 (1975)]. There are also shown the effective doses of the typical compounds of this invention on the mice infected with Escherichia coli in comparison with that of cephaloridine.
Minimum Inhibitory Concentrations (mcg/ml, agar dilution)

Escherichia coli O-111 = assay: Comparative protection test on infected mice; format: in vivo; settings: O111, sc, 168 h; male ICR/SLC mice infected intraperitoneally with Escherichia coli O-111; single subcutaneous dose immediately after challenge; 7 days observation
Description: as §2
Comparative protection tests of the compounds of this
invention and cephaloridine on infected mice
*Test animals: male mice (ICR/SLC) 5 mice per group per single dose
Infection: intraperitoneally with Escherichia coli O-111
Administration: a single subcutaneous dose immediately after challenge
Observation period: 7 days

P. rettgeri GN 4733 = assay: Minimum Inhibitory Concentration, agar dilution, P. rettgeri GN 4733; format: cell-based, Proteus rettgeri; settings: Providencia rettgeri, GN4733; P. rettgeri GN 4733; agar dilution; read-out: Minimum Inhibitory Concentration
Description: as §1

Cit. freundii GN 99 = assay: Minimum Inhibitory Concentration, agar dilution, Cit. freundii GN 99; format: cell-based; settings: Citrobacter freundii, GN99; Cit. freundii GN 99; agar dilution; read-out: Minimum Inhibitory Concentration
Description: as §1

P. mirabilis GN 4359 = assay: Minimum Inhibitory Concentration, agar dilution, P. mirabilis GN 4359; format: cell-based; settings: Proteus mirabilis
Description: as §1

E. coli T-7 = assay: Minimum Inhibitory Concentration, agar dilution, E. coli T-7; format: cell-based; settings: Escherichia coli, T7; E. coli T-7; agar dilution; read-out: Minimum Inhibitory Concentration
Description: as §1

P. morganii IFO 3168 = assay: Minimum Inhibitory Concentration, agar dilution, P. morganii IFO 3168; format: cell-based, Proteus morganii; settings: Morganella morganii, IFO3168; P. morganii IFO 3168; agar dilution; read-out: Minimum Inhibitory Concentration
Description: as §1

P. vulgaris IFO 3988 = assay: Minimum Inhibitory Concentration, agar dilution, P. vulgaris IFO 3988; format: cell-based; settings: Proteus vulgaris, IFO3988; P. vulgaris IFO 3988; agar dilution; read-out: Minimum Inhibitory Concentration
Description: as §1

K. pneumoniae DT = assay: Minimum Inhibitory Concentration, agar dilution, K. pneumoniae DT; format: cell-based; settings: Klebsiella pneumoniae, read-out: Minimum Inhibitory Concentration
Description: as §1

Ent. cloacae IFO 12937 = assay: Minimum Inhibitory Concentration, agar dilution, Ent. cloacae IFO 12937; format: cell-based; settings: Enterobacter cloacae, IFO12937; Ent. cloacae IFO 12937; agar dilution; read-out: Minimum Inhibitory Concentration

## Cc1nnc(SCC2=C(C(=O)O)N3C(=O)C(NC(=O)Cc4csc(=N)n4O)C3SC2)o1 (stereo not shown) [Example 6, sodium 7-[2-(2-imino-3-hydroxy-4-thiazolin-4-yl)acetamido]-3-(5-methyl-1,3,4-oxadiazol-2-yl) thiomethyl-3-cephem-4-carboxylate]
K. pneumoniae GN 3835
  MIC: 0.78 µg/mL
E. coli NIHJ
  MIC: 0.1 µg/mL
P. rettgeri 8(TNO 336)
  MIC: ≤ 0.012 µg/mL
Cit. freundii GN 1706
  MIC: 1.56 µg/mL
E. coli O-111
  MIC: 0.05 µg/mL
Escherichia coli O-111
  ED50: 0.071 mg/kg
P. rettgeri GN 4733
  MIC: 0.1 µg/mL
Cit. freundii GN 99
  MIC: 0.78 µg/mL
P. mirabilis GN 4359; GN4359, P. mirabilis GN 4359, agar dilution, read-out: Minimum Inhibitory Concentration
  MIC: 0.1 µg/mL
E. coli T-7
  MIC: 3.13 µg/mL
P. morganii IFO 3168
  MIC: 0.1 µg/mL
P. vulgaris IFO 3988
  MIC: 0.2 µg/mL
K. pneumoniae DT; K. pneumoniae DT, agar dilution
  MIC: 0.1 µg/mL
Ent. cloacae IFO 12937
  MIC: 50 µg/mL

## O=C(Cc1cccs1)N[C@@H]1C(=O)N2C(C(=O)[O-])=C(C[n+]3ccccc3)CS[C@H]12 [Cephaloridine, 7-(2-thienylacetamido)-3-(1-pyridyl)methyl-3-cephem-4-carboxylic acid betaine, reference compound]
K. pneumoniae GN 3835
  MIC: 50 µg/mL (≈ 120 µM)
E. coli NIHJ
  MIC: 6.25 µg/mL (≈ 15 µM)
P. rettgeri 8(TNO 336)
  MIC: 1.56 µg/mL (≈ 3.75 µM)
Cit. freundii GN 1706
  MIC: > 100 µg/mL
E. coli O-111
  MIC: 3.13 µg/mL (≈ 7.53 µM)
Escherichia coli O-111
  ED50: 2.6 mg/kg
P. rettgeri GN 4733
  MIC: > 100 µg/mL
Cit. freundii GN 99
  MIC: 50 µg/mL (≈ 120 µM)
P. mirabilis GN 4359; GN4359, read-out: Minimum Inhibitory Concentration
  MIC: 3.13 µg/mL (≈ 7.53 µM)
E. coli T-7
  MIC: > 100 µg/mL
P. morganii IFO 3168
  MIC: > 100 µg/mL
P. vulgaris IFO 3988
  MIC: 6.25 µg/mL (≈ 15 µM)
K. pneumoniae DT
  MIC: 3.13 µg/mL (≈ 7.53 µM)
Ent. cloacae IFO 12937
  MIC: > 100 µg/mL
